Targets include TESK1 (Homo sapiens, UniProt Q15569); PAK6 (Homo sapiens, UniProt Q9NQU5); HCK (Homo sapiens, UniProt P08631); BMX (Homo sapiens, UniProt P51813); CSF1R-autoinhibited (Homo sapiens, UniProt P07333); PKNB(M.tuberculosis) (Mycobacterium tuberculosis, UniProt P9WI81); CDK5 (Homo sapiens, UniProt Q00535); DYRK1A (Homo sapiens, UniProt Q13627); GRK4 (Homo sapiens, UniProt P32298); CLK3 (Homo sapiens, UniProt P49761); CSNK1G1 (Homo sapiens, UniProt Q9HCP0); EPHA3 (Homo sapiens, UniProt P29320); PAK2 (Homo sapiens, UniProt Q13177); GAK (Homo sapiens, UniProt O14976); EPHA8 (Homo sapiens, UniProt P29322); CAMKK2 (Homo sapiens, UniProt Q96RR4); AKT3 (Homo sapiens, UniProt Q9Y243); ALK(C1156Y) (Homo sapiens, UniProt Q9UM73, C1156Y); PRKCE (Homo sapiens, UniProt Q02156).

Common to all, as to experiment: biochemical
Common to all, as to parameters: DiscoverX kinase panel, active-site competition binding (KINOMEscan type), percent of control at one concentration
Holding throughout (conditions): competition binding, percent of control

Another assay deals with T1, MEK3 (Homo sapiens, UniProt P46734).
T1 construct: gene MAP2K3
T1 sequence (P46734 whole entry): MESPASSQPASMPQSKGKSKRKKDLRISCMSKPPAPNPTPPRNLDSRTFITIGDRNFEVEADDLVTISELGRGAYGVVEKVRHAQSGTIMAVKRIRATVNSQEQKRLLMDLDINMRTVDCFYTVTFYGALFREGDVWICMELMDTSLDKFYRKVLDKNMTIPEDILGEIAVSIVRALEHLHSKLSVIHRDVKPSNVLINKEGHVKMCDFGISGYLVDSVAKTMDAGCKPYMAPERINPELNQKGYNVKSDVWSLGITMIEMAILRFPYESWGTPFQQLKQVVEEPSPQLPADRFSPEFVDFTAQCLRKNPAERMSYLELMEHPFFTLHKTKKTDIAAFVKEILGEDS

The target of the next assay is T2, IKK-beta (Homo sapiens, UniProt O14920).
T2 construct: gene IKBKB

Another assay addresses T3, PFPK5(P.falciparum) (Plasmodium falciparum, UniProt P61075).
T3 construct: gene MAL13P1.279

Sequence of PAK2 (Q13177 whole entry): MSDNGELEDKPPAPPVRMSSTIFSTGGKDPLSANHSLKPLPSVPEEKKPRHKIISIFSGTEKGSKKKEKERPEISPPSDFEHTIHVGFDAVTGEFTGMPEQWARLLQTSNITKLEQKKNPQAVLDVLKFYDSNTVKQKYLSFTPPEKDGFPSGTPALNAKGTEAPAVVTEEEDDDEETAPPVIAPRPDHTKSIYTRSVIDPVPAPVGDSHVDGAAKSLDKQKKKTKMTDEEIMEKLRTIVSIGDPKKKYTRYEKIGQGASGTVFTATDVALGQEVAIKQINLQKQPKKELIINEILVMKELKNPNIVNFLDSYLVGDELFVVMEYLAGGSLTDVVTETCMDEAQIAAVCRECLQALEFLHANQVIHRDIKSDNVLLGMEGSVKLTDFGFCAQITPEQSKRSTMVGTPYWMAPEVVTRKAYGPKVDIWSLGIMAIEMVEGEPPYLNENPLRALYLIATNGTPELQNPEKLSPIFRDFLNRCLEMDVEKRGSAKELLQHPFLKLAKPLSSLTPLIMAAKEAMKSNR
Sequence of CDK5 (Q00535 whole entry): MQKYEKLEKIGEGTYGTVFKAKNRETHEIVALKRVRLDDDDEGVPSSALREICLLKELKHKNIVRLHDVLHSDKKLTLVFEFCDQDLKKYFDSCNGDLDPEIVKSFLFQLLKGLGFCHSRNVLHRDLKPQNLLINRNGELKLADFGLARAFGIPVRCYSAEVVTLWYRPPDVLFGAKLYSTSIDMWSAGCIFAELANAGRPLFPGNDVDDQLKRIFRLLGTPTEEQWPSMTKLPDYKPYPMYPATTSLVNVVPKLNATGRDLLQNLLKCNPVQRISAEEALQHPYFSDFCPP
Sequence of CSF1R-autoinhibited (P07333 whole entry): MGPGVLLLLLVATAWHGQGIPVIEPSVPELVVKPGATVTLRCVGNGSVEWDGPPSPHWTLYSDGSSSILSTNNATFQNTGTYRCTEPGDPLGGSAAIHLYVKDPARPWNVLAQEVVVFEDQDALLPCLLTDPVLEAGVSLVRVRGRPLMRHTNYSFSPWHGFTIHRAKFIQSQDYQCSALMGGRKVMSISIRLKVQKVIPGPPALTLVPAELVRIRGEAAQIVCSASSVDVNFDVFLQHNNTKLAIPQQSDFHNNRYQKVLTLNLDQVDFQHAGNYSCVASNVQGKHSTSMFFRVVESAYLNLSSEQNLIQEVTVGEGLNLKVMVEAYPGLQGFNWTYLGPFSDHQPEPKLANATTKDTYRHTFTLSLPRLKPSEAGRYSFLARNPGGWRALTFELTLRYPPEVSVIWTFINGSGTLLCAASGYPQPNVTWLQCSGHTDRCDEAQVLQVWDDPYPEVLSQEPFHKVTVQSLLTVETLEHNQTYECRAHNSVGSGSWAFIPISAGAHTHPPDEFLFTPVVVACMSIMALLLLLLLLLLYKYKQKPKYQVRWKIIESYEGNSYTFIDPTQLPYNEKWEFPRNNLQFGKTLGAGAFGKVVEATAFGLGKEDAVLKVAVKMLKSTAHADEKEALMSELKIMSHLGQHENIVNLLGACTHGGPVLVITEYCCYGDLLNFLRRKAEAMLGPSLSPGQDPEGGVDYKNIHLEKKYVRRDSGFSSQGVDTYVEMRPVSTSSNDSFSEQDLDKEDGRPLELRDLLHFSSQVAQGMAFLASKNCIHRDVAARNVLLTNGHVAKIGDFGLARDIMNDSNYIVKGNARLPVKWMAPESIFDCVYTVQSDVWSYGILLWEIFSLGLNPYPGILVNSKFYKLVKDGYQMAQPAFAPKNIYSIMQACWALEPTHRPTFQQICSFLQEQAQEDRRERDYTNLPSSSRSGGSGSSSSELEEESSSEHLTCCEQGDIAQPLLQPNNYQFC
Sequence of CSNK1G1 (Q9HCP0 whole entry): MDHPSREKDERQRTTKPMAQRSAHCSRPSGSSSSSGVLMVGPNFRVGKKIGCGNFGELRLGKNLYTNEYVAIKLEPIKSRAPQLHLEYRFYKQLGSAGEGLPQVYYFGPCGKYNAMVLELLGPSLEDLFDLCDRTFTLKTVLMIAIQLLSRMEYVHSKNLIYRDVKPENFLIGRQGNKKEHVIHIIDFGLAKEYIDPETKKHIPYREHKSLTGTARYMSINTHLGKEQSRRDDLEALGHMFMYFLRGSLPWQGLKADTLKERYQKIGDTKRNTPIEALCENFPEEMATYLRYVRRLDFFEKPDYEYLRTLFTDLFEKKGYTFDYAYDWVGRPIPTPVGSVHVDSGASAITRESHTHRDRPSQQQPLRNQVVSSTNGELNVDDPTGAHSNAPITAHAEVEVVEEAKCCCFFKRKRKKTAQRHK
Sequence of EPHA3 (P29320 whole entry): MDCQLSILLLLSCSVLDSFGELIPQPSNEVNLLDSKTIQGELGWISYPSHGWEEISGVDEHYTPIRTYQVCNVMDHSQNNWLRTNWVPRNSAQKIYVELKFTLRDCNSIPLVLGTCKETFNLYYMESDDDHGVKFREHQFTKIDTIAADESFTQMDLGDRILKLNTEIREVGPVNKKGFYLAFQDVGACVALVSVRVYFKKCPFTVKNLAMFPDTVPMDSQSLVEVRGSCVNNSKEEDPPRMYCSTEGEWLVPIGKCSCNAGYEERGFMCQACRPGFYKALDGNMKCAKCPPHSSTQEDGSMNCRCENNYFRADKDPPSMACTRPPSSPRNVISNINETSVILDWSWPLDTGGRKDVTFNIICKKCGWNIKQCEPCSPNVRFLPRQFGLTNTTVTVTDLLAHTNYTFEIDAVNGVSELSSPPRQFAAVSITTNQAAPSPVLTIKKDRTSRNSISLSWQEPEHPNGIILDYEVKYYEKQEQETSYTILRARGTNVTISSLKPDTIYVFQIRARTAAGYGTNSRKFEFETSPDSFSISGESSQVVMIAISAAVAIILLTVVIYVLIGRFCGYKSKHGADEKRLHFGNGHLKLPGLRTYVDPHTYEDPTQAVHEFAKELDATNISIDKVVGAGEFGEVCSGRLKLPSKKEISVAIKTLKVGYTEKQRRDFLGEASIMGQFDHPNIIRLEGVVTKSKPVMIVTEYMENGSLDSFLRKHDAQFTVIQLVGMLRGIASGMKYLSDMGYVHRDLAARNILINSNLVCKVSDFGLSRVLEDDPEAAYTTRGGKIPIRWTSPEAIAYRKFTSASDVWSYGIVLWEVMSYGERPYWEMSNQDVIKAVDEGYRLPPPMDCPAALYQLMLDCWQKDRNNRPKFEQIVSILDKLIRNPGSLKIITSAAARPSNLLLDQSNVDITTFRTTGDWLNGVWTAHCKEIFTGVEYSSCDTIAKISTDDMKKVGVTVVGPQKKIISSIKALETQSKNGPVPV
Sequence of GAK (O14976 whole entry): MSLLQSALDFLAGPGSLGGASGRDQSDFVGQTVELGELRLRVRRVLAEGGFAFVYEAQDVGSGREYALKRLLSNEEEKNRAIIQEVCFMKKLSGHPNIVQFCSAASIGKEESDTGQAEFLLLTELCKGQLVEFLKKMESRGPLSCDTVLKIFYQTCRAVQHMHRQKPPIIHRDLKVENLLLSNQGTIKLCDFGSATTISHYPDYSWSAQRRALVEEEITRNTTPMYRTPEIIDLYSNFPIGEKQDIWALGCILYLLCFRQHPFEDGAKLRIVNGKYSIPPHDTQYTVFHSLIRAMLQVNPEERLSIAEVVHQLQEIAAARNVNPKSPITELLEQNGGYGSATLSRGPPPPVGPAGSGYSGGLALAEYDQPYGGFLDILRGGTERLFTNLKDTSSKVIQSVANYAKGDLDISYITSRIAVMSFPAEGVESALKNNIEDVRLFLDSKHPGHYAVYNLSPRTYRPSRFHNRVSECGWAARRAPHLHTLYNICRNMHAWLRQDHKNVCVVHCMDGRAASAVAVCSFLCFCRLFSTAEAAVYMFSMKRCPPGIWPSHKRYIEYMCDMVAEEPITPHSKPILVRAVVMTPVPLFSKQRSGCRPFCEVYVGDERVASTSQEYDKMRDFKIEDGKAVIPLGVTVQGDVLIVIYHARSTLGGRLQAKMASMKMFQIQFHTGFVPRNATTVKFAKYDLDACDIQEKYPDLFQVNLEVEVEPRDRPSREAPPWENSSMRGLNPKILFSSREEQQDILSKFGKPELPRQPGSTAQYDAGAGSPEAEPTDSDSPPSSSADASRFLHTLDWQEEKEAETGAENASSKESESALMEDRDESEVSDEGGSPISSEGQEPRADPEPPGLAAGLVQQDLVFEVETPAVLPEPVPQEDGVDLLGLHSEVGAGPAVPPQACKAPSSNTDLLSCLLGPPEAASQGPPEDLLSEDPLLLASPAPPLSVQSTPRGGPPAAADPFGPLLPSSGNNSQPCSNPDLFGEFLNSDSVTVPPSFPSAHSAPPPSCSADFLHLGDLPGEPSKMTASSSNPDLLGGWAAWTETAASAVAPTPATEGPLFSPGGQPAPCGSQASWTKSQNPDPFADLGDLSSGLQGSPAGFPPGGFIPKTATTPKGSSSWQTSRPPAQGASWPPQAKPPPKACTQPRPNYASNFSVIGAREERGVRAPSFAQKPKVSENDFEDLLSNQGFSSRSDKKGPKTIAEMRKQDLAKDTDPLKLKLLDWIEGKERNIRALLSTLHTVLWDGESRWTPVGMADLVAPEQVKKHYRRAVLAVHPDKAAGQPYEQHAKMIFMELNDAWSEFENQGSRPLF

Consider `COc1cc2c(cn1)N(C)C(=O)[C@@H](NC(=O)c1nc3n(n1)[C@H](c1ccccc1)CC3)CC2` [GNE684, (S)-N-((S)-7-methoxy-1-methyl-2-oxo-2,3,4,5-tetrahydro-1H-pyrido[3,4-b]azepin-3-yl)-5-phenyl-6,7-dihydro-5H-pyrrolo[1,2-b][1,2,4]triazole-2-carboxamide], for which the remaining binding at 10 µM on TESK1 came to 94%; on PAK6, 100%; at HCK it was 93%; at BMX, 94%; on CSF1R-autoinhibited, 94%; on PKNB(M.tuberculosis), 96%. The remaining binding at 10 µM stood at 93% on CDK5; 79% at DYRK1A; 100% at GRK4; 87% at MEK3; 97% at CLK3; 91% on CSNK1G1. The remaining binding at 10 µM at EPHA3 turned out to be 91%; at IKK-beta, 100%; at PAK2 it was 100%; on GAK, 92%; on EPHA8, 100%; on PFPK5(P.falciparum), 100%. In addition, the remaining binding at 10 µM at CAMKK2 stood at 100%; on AKT3, 75%; on ALK(C1156Y) it was 96%; on PRKCE, 88%.

Source of the values: PMC7206119, “RIP1 inhibition blocks inflammatory diseases but not tumor growth or metastases” (Cell Death and Differentiation, 2019).
